Tests used:
Assay in all cases: relative viability (nuclei count vs DMSO), 5 days (fraction); higher = more cells survive
Pemetrexed + Luminespib = compound: Nc1nc2[nH]cc(CCc3ccc(C(=O)N[C@@H](CCC(=O)O)C(=O)O)cc3)c2c(=O)[nH]1 [Pemetrexed] + CCNC(=O)c1noc(-c2cc(C(C)C)c(O)cc2O)c1-c1ccc(CN2CCOCC2)cc1 [Luminespib] (partner 0.01 µM)
How it was run: (§1)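 Dosing by pin tool came one day after lung cancer cell lines were seeded in 1536-well plates, using either one drug or a fixed anchor-drug dose plus five library-drug doses (not always all listed) in √10 steps. After 5 days, nuclei were counted on 4× images. Relative viability is treated-well nuclei count divided by vehicle-well nuclei count, and values are medians of duplicate plates.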

Pemetrexed + Lapatinib = compound: Nc1nc2[nH]cc(CCc3ccc(C(=O)N[C@@H](CCC(=O)O)C(=O)O)cc3)c2c(=O)[nH]1 [Pemetrexed] + CS(=O)(=O)CCNCc1ccc(-c2ccc3ncnc(Nc4ccc(OCc5cccc(F)c5)c(Cl)c4)c3c2)o1 [Lapatinib] (partner 2 µM)
How it was run: as §1

Pemetrexed + Linsitinib = compound: Nc1nc2[nH]cc(CCc3ccc(C(=O)N[C@@H](CCC(=O)O)C(=O)O)cc3)c2c(=O)[nH]1 [Pemetrexed] + C[C@]1(O)C[C@@H](c2nc(-c3ccc4ccc(-c5ccccc5)nc4c3)c3c(N)nccn32)C1 [Linsitinib] (partner 1 µM)
How it was run: as §1

Pemetrexed + Olaparib = compound: Nc1nc2[nH]cc(CCc3ccc(C(=O)N[C@@H](CCC(=O)O)C(=O)O)cc3)c2c(=O)[nH]1 [Pemetrexed] + O=C(c1cc(Cc2n[nH]c(=O)c3ccccc23)ccc1F)N1CCN(C(=O)C2CC2)CC1 [Olaparib] (partner 8 µM)
How it was run: as §1

NCI-H2347
relative viability (Pemetrexed + Luminespib; first compound 0.002 µM): 0.0507 | relative viability (Pemetrexed + Luminespib; first compound 0.006325 µM): 0.281 | relative viability (Pemetrexed + Luminespib; first compound 0.02 µM): 0.551 | relative viability (Pemetrexed + Luminespib; first compound 0.06325 µM): 0.55 | relative viability (Pemetrexed + Luminespib; first compound 0.2 µM): 0.381 | relative viability (Pemetrexed + Lapatinib; first compound 0.002 µM): 0.658 | relative viability (Pemetrexed + Lapatinib; first compound 0.006325 µM): 0.954 | relative viability (Pemetrexed + Lapatinib; first compound 0.02 µM): 0.904 | relative viability (Pemetrexed + Lapatinib; first compound 0.06325 µM): 0.867 | relative viability (Pemetrexed + Lapatinib; first compound 0.2 µM): 0.565 | relative viability (Pemetrexed + Linsitinib; first compound 0.002 µM): 0.874 | relative viability (Pemetrexed + Linsitinib; first compound 0.006325 µM): 0.932 | relative viability (Pemetrexed + Linsitinib; first compound 0.02 µM): 0.938 | relative viability (Pemetrexed + Linsitinib; first compound 0.06325 µM): 0.716 | relative viability (Pemetrexed + Linsitinib; first compound 0.2 µM): 0.521 | relative viability (Pemetrexed + Olaparib; first compound 0.002 µM): 0.55 | relative viability (Pemetrexed + Olaparib; first compound 0.006325 µM): 0.527 | relative viability (Pemetrexed + Olaparib; first compound 0.02 µM): 0.678 | relative viability (Pemetrexed + Olaparib; first compound 0.06325 µM): 0.517 | relative viability (Pemetrexed + Olaparib; first compound 0.2 µM): 0.499

NCI-H650
relative viability (Pemetrexed + Luminespib; first compound 0.002 µM): 0.751 | relative viability (Pemetrexed + Luminespib; first compound 0.006325 µM): 0.733 | relative viability (Pemetrexed + Luminespib; first compound 0.02 µM): 0.732 | relative viability (Pemetrexed + Luminespib; first compound 0.06325 µM): 0.705 | relative viability (Pemetrexed + Luminespib; first compound 0.2 µM): 0.842 | relative viability (Pemetrexed + Lapatinib; first compound 0.002 µM): 0.829 | relative viability (Pemetrexed + Lapatinib; first compound 0.006325 µM): 0.924 | relative viability (Pemetrexed + Lapatinib; first compound 0.02 µM): 0.524 | relative viability (Pemetrexed + Lapatinib; first compound 0.06325 µM): 0.849 | relative viability (Pemetrexed + Lapatinib; first compound 0.2 µM): 0.841 | relative viability (Pemetrexed + Linsitinib; first compound 0.002 µM): 0.651 | relative viability (Pemetrexed + Linsitinib; first compound 0.006325 µM): 0.983 | relative viability (Pemetrexed + Linsitinib; first compound 0.02 µM): 1.1 | relative viability (Pemetrexed + Linsitinib; first compound 0.06325 µM): 0.944 | relative viability (Pemetrexed + Linsitinib; first compound 0.2 µM): 0.839 | relative viability (Pemetrexed + Olaparib; first compound 0.002 µM): 0.382 | relative viability (Pemetrexed + Olaparib; first compound 0.006325 µM): 0.403 | relative viability (Pemetrexed + Olaparib; first compound 0.06325 µM): 0.302 | relative viability (Pemetrexed + Olaparib; first compound 0.2 µM): 0.378

NCI-H1975
relative viability (Pemetrexed + Luminespib; first compound 0.002 µM): 0.169 | relative viability (Pemetrexed + Luminespib; first compound 0.006325 µM): 0.295 | relative viability (Pemetrexed + Luminespib; first compound 0.02 µM): 0.177 | relative viability (Pemetrexed + Luminespib; first compound 0.06325 µM): 0.195 | relative viability (Pemetrexed + Luminespib; first compound 0.2 µM): 0.169 | relative viability (Pemetrexed + Lapatinib; first compound 0.006325 µM): 0.885 | relative viability (Pemetrexed + Lapatinib; first compound 0.02 µM): 0.906 | relative viability (Pemetrexed + Lapatinib; first compound 0.06325 µM): 0.78 | relative viability (Pemetrexed + Lapatinib; first compound 0.2 µM): 0.423 | relative viability (Pemetrexed + Linsitinib; first compound 0.006325 µM): 0.904 | relative viability (Pemetrexed + Linsitinib; first compound 0.02 µM): 1.06 | relative viability (Pemetrexed + Linsitinib; first compound 0.06325 µM): 0.793 | relative viability (Pemetrexed + Linsitinib; first compound 0.2 µM): 0.526 | relative viability (Pemetrexed + Olaparib; first compound 0.002 µM): 0.645 | relative viability (Pemetrexed + Olaparib; first compound 0.006325 µM): 0.748 | relative viability (Pemetrexed + Olaparib; first compound 0.02 µM): 0.765 | relative viability (Pemetrexed + Olaparib; first compound 0.06325 µM): 0.677 | relative viability (Pemetrexed + Olaparib; first compound 0.2 µM): 0.323

NCI-H2126
relative viability (Pemetrexed + Luminespib; first compound 0.002 µM): 0.827 | relative viability (Pemetrexed + Luminespib; first compound 0.006325 µM): 0.96 | relative viability (Pemetrexed + Luminespib; first compound 0.02 µM): 0.89 | relative viability (Pemetrexed + Luminespib; first compound 0.06325 µM): 0.883 | relative viability (Pemetrexed + Luminespib; first compound 0.2 µM): 0.831 | relative viability (Pemetrexed + Lapatinib; first compound 0.002 µM): 0.75 | relative viability (Pemetrexed + Lapatinib; first compound 0.006325 µM): 0.747 | relative viability (Pemetrexed + Lapatinib; first compound 0.02 µM): 0.789 | relative viability (Pemetrexed + Lapatinib; first compound 0.06325 µM): 0.747 | relative viability (Pemetrexed + Lapatinib; first compound 0.2 µM): 0.739 | relative viability (Pemetrexed + Linsitinib; first compound 0.002 µM): 0.696 | relative viability (Pemetrexed + Linsitinib; first compound 0.006325 µM): 0.686 | relative viability (Pemetrexed + Linsitinib; first compound 0.02 µM): 0.718 | relative viability (Pemetrexed + Linsitinib; first compound 0.06325 µM): 0.692 | relative viability (Pemetrexed + Linsitinib; first compound 0.2 µM): 0.729 | relative viability (Pemetrexed + Olaparib; first compound 0.002 µM): 0.861 | relative viability (Pemetrexed + Olaparib; first compound 0.006325 µM): 0.965 | relative viability (Pemetrexed + Olaparib; first compound 0.02 µM): 0.886 | relative viability (Pemetrexed + Olaparib; first compound 0.06325 µM): 0.889 | relative viability (Pemetrexed + Olaparib; first compound 0.2 µM): 0.777

NCI-H2087
relative viability (Pemetrexed + Luminespib; first compound 0.002 µM): 0.206 | relative viability (Pemetrexed + Luminespib; first compound 0.006325 µM): 0.204 | relative viability (Pemetrexed + Luminespib; first compound 0.02 µM): 0.243 | relative viability (Pemetrexed + Luminespib; first compound 0.06325 µM): 0.152 | relative viability (Pemetrexed + Luminespib; first compound 0.2 µM): 0.136 | relative viability (Pemetrexed + Lapatinib; first compound 0.002 µM): 0.965 | relative viability (Pemetrexed + Lapatinib; first compound 0.006325 µM): 0.952 | relative viability (Pemetrexed + Lapatinib; first compound 0.02 µM): 1.21 | relative viability (Pemetrexed + Lapatinib; first compound 0.06325 µM): 0.927 | relative viability (Pemetrexed + Lapatinib; first compound 0.2 µM): 0.644 | relative viability (Pemetrexed + Linsitinib; first compound 0.002 µM): 0.886 | relative viability (Pemetrexed + Linsitinib; first compound 0.006325 µM): 0.889 | relative viability (Pemetrexed + Linsitinib; first compound 0.02 µM): 1.02 | relative viability (Pemetrexed + Linsitinib; first compound 0.06325 µM): 0.767 | relative viability (Pemetrexed + Linsitinib; first compound 0.2 µM): 0.635 | relative viability (Pemetrexed + Olaparib; first compound 0.002 µM): 0.595 | relative viability (Pemetrexed + Olaparib; first compound 0.006325 µM): 0.585 | relative viability (Pemetrexed + Olaparib; first compound 0.02 µM): 0.626 | relative viability (Pemetrexed + Olaparib; first compound 0.06325 µM): 0.534 | relative viability (Pemetrexed + Olaparib; first compound 0.2 µM): 0.539

— the supplement of paper PMC10307832
